Results taken from PubChem BioAssay AID1918944 (Molecular Pharmacology Branch, DTP, NCI, 2023).
Several values for one entry are separate records, joined by “and”; a condition that tells them apart may be missing. Identical values can stand only once.

Test system: 786-0 complex spheroid viability
Assay: Anticancer human tumor 786-0 cell line growth inhibition;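 also: spheroids exposed to agents for seven days before readout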
Settings: for viability, T/C: stronger effect = lower value
Method in brief: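 Multicellular complex spheroids of tumor cells with human endothelial cells (HUVEC) and mesenchymal stem cells; the LSD1 inhibitor iadademstat was combined with standard-of-care or investigational agents. Top concentration at or near clinical Cmax, half-log dilutions; final DMSO ≤0.25%.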

[1] = curve of first compound, second compound 0.1 µM
[2] = curve of first compound, second compound 0.316 µM
[3] = curve of first compound, second compound 1 µM
[4] = curve of first compound, second compound 3.16 µM
[5] = curve of first compound, second compound 10 µM
[6] = second compound 0.1 µM, first compound 0.0316 µM
[7] = second compound 0.1 µM, first compound 0.1 µM
[8] = second compound 0.1 µM, first compound 0.316 µM
[9] = second compound 0.1 µM, first compound 1 µM
[10] = second compound 0.316 µM, first compound 0.0316 µM
[11] = second compound 0.316 µM, first compound 0.1 µM
[12] = second compound 0.316 µM, first compound 0.316 µM
[13] = second compound 0.316 µM, first compound 1 µM
[14] = second compound 1 µM, first compound 0.0316 µM
[15] = second compound 1 µM, first compound 0.1 µM
[16] = second compound 1 µM, first compound 0.316 µM
[17] = second compound 1 µM, first compound 1 µM
[18] = second compound 3.16 µM, first compound 0.0316 µM
[19] = second compound 3.16 µM, first compound 0.1 µM
[20] = second compound 3.16 µM, first compound 0.316 µM
[21] = second compound 3.16 µM, first compound 1 µM
[22] = second compound 10 µM, first compound 0.0316 µM
[23] = second compound 10 µM, first compound 0.1 µM
[24] = second compound 10 µM, first compound 0.316 µM
[25] = second compound 10 µM, first compound 1 µM

Structure (SMILES): CCN(c1cc(-c2ccc(CN3CCOCC3)cc2)cc(C(=O)NCc2c(C)cc(C)[nH]c2=O)c1C)C1CCOCC1 + NC1CCC(NC2CC2c2ccccc2)CC1
- IC50 [1]: > 3000 nM
- IC50 [2]: > 3000 nM
- IC50 [3]: > 3000 nM
- IC50 [4]: > 3000 nM
- IC50 [5]: > 3000 nM
- viability, T/C (second compound 0.1 µM, first compound 0.00949 µM): 121%
- viability, T/C (second compound 0.1 µM, first compound 0.03 µM): 122%
- viability, T/C (second compound 0.1 µM, first compound 0.0949 µM): 117%
- viability, T/C (second compound 0.1 µM, first compound 0.3 µM): 114%
- viability, T/C (second compound 0.1 µM, first compound 0.949 µM): 114%
- viability, T/C (second compound 0.1 µM, first compound 3 µM): 111%
- viability, T/C (second compound 0.316 µM, first compound 0.00949 µM): 119%
- viability, T/C (second compound 0.316 µM, first compound 0.03 µM): 118%
- viability, T/C (second compound 0.316 µM, first compound 0.0949 µM): 114%
- viability, T/C (second compound 0.316 µM, first compound 0.3 µM): 116%
- viability, T/C (second compound 0.316 µM, first compound 0.949 µM): 109%
- viability, T/C (second compound 0.316 µM, first compound 3 µM): 106%
- viability, T/C (second compound 1 µM, first compound 0.00949 µM): 116%
- viability, T/C (second compound 1 µM, first compound 0.03 µM): 114%
- viability, T/C (second compound 1 µM, first compound 0.0949 µM): 115%
- viability, T/C (second compound 1 µM, first compound 0.3 µM): 109%
- viability, T/C (second compound 1 µM, first compound 0.949 µM): 105%
- viability, T/C (second compound 1 µM, first compound 3 µM): 106%
- viability, T/C (second compound 3.16 µM, first compound 0.00949 µM): 111%
- viability, T/C (second compound 3.16 µM, first compound 0.03 µM): 105%
- viability, T/C (second compound 3.16 µM, first compound 0.0949 µM): 109%
- viability, T/C (second compound 3.16 µM, first compound 0.3 µM): 110%
- viability, T/C (second compound 3.16 µM, first compound 0.949 µM): 97.2%
- viability, T/C (second compound 3.16 µM, first compound 3 µM): 105%
- viability, T/C (second compound 10 µM, first compound 0.00949 µM): 87.2%
- viability, T/C (second compound 10 µM, first compound 0.03 µM): 90.2%
- viability, T/C (second compound 10 µM, first compound 0.0949 µM): 91.2%
- viability, T/C (second compound 10 µM, first compound 0.3 µM): 96.5%
- viability, T/C (second compound 10 µM, first compound 0.949 µM): 88.3%
- viability, T/C (second compound 10 µM, first compound 3 µM): 89%

Structure (SMILES): CC1COCCN1c1cc(C2(S(C)(=N)=O)CC2)nc(-c2ccnc3[nH]ccc23)n1 (configuration not stated) + NC1CCC(NC2CC2c2ccccc2)CC1
- IC50 [1]: 886 nM
- IC50 [2]: 792 nM
- IC50 [3]: 795 nM
- IC50 [4]: 604 nM
- IC50 [5]: 294 nM
- viability, T/C [6]: 118%
- viability, T/C [7]: 114%
- viability, T/C [8]: 104%
- viability, T/C [9]: 43%
- viability, T/C (second compound 0.1 µM, first compound 3.16 µM): 15.3%
- viability, T/C (second compound 0.1 µM, first compound 10 µM): 6.76%
- viability, T/C [10]: 125%
- viability, T/C [11]: 116%
- viability, T/C [12]: 93.4%
- viability, T/C [13]: 38.1%
- viability, T/C (second compound 0.316 µM, first compound 3.16 µM): 14.7%
- viability, T/C (second compound 0.316 µM, first compound 10 µM): 6.62%
- viability, T/C [14]: 112%
- viability, T/C [15]: 116%
- viability, T/C [16]: 89.2%
- viability, T/C [17]: 40%
- viability, T/C (second compound 1 µM, first compound 3.16 µM): 13%
- viability, T/C (second compound 1 µM, first compound 10 µM): 4.93%
- viability, T/C [18]: 109%
- viability, T/C [19]: 103%
- viability, T/C [20]: 72.8%
- viability, T/C [21]: 32.3%
- viability, T/C (second compound 3.16 µM, first compound 3.16 µM): 9.43%
- viability, T/C (second compound 3.16 µM, first compound 10 µM): 5.16%
- viability, T/C [22]: 94.1%
- viability, T/C [23]: 77.5%
- viability, T/C [24]: 48.3%
- viability, T/C [25]: 20.8%
- viability, T/C (second compound 10 µM, first compound 3.16 µM): 5.55%
- viability, T/C (second compound 10 µM, first compound 10 µM): 2.91%

Structure (SMILES): CC1COCCN1c1cc(-c2ccnn2C)c2ccnc(-c3ccn[nH]3)c2n1 (configuration not stated) + NC1CC1c1ccc(-c2cccc(O)c2)cc1
- IC50 [1]: 47.9 nM
- IC50 [2]: 45.3 nM
- IC50 [3]: 44.1 nM
- IC50 [4]: 30.7 nM
- IC50 [5]: 17.4 nM
- viability, T/C (second compound 0.1 µM, first compound 0.00316 µM): 119%
- viability, T/C (second compound 0.1 µM, first compound 0.01 µM): 108%
- viability, T/C [6]: 63.8%
- viability, T/C [7]: 25.9%
- viability, T/C [8]: 16.2%
- viability, T/C [9]: 17.9%
- viability, T/C (second compound 0.316 µM, first compound 0.00316 µM): 115%
- viability, T/C (second compound 0.316 µM, first compound 0.01 µM): 107%
- viability, T/C [10]: 62.5%
- viability, T/C [11]: 22.7%
- viability, T/C [12]: 15%
- viability, T/C [13]: 17.3%
- viability, T/C (second compound 1 µM, first compound 0.00316 µM): 111%
- viability, T/C (second compound 1 µM, first compound 0.01 µM): 111%
- viability, T/C [14]: 61.5%
- viability, T/C [15]: 22.6%
- viability, T/C [16]: 15.8%
- viability, T/C [17]: 17%
- viability, T/C (second compound 3.16 µM, first compound 0.00316 µM): 112%
- viability, T/C (second compound 3.16 µM, first compound 0.01 µM): 98.5%
- viability, T/C [18]: 48.2%
- viability, T/C [19]: 23.1%
- viability, T/C [20]: 15%
- viability, T/C [21]: 18.4%
- viability, T/C (second compound 10 µM, first compound 0.00316 µM): 103%
- viability, T/C (second compound 10 µM, first compound 0.01 µM): 70.2%
- viability, T/C [22]: 28.4%
- viability, T/C [23]: 17%
- viability, T/C [24]: 12.9%
- viability, T/C [25]: 19.6%

Structure (SMILES): CC[C@@]1(O)C(=O)OCc2c1cc1n(c2=O)Cc2cc3c(CN(C)C)c(O)ccc3nc2-1
- viability, T/C (compound 0.000316 µM): 103% and 99.7%
- viability, T/C (compound 0.001 µM): 96.7% and 96.5%
- viability, T/C (compound 0.00316 µM): 65.8% and 70.9%
- viability, T/C (compound 0.01 µM): 15.6% and 24.7%
- viability, T/C (compound 0.0316 µM): 9.17% and 10.9%
- viability, T/C (compound 0.1 µM): 4.15% and 4.08%
- IC50 (curve of compound): 4.54 nM and 5.35 nM
